Results from patent US9029567B2, “Hypoglycemic compounds” (Cadila Pharmaceuticals Limited, priority 2010, dated 2015).

System: Wistar female rats
Experiment: Oral Glucose Tolerance Test in animals (in vivo screening of hypoglycemic effect)
Conditions: three experiments; for % change in glucose level (Mean ± SEM) 30 Min: 30 min after glucose (2 gm/Kg, given 3 hrs after compound), oral equimolar dose (Sitagliptin 9.0, CPL-2009-0030 11.28, CPL-2009-0031 12.0 mg/kg), no treatment 199 ± 5; for % change in glucose level (Mean ± SEM) 1 Hr: 1 hr after glucose (2 gm/Kg, given 3 hrs after compound), no treatment 154 ± 4; for % change in glucose level (Mean ± SEM) 1 Hr / % change in glucose level (Mean ± SEM) 2 hr: oral equimolar dose; for % change in glucose level (Mean ± SEM) 2 hr: 2 hr after glucose (2 gm/Kg, given 3 hrs after compound), no treatment 122 ± 5
Experimental: The efficacy compound CPL-2009-0030 and CPL-2009-0031 were prepared as per present invention. They were evaluated through Oral Glucose Tolerance Test in animals. Each group consist of 10-12 weeks old Wistar female rats. The animals were divided into 4 different groups of 6 animals per group. The group I received vehical (WFI Placebo), Group II received Sitagliptin as positive control, Group III received CPL-2009-0030 and Group IV received CPL-2009-0031. All animals had over night fasting.
The drug was administrated as per table 01 at 0 hour to all the study group animals with 10 mL/kg of dose volume. The compounds were administered orally. The glucose (2 gm/Kg body weight) was administered 3 hrs after the administration of compounds. Blood glucose was measured at the time of administration of compound, glucose and 30 min, 1 hr, 2 hr, 3 hr and 4 hr after the glucose administration. […] The rise was maximum at 30 min after glucose administration. […] The difference between no treatment group and other three groups is maximum at 30 min and it decreases over time (FIG. 1). […] Thus, the compound of present invention reduces hyperglycaemic effect of glucose without inducing hypoglycaemia. In other words, compounds of present invention provide hypoglycaemic effect only to reduce post-prandial hyperglycaemia without inducing fasting hypoglycaemia.
To confirm the finding the experiment was repeated three times and the percentage change in glucose level over time of three experiments is presented in table 02. The repeat experiments also confirm the findings.

Compound | % change in glucose level (Mean ± SEM) 30 Min | % change in glucose level (Mean ± SEM) 1 Hr | % change in glucose level (Mean ± SEM) 2 hr
CCC(C)C(N)C(=O)NC(CC(=O)N1CCn2c(nnc2C(F)(F)F)C1)Cc1cc(F)c(F)cc1F (stereo not drawn) [CPL-2009-0030] | 145 ± 13% | 127 ± 6% | 108 ± 5%
NC(Cc1ccccc1)C(=O)NC(CC(=O)N1CCn2c(nnc2C(F)(F)F)C1)Cc1cc(F)c(F)cc1F (stereo not drawn) [CPL-2009-0031] | 125 ± 3% | 123 ± 4% | 110 ± 3%
N[C@@H](CC(=O)N1CCn2c(nnc2C(F)(F)F)C1)Cc1cc(F)c(F)cc1F [Sitagliptin, reference compound] | 149 ± 5% | 130 ± 4% | 109 ± 2%
